Test results taken from publication PMC9450014, “The evaluation of ADME and pharmacokinetic properties of decoquinate derivatives for the treatment of malaria” (Frontiers in Pharmacology, 2022).
Where two headings read alike, the source gives them in different places.

Tests used:
[1] = In vivo pharmacokinetics, intravenous administration; set-up: species or system C57BL/6 mice; details: mice, 5 mg/kg per table footnote, 5 mg/kg; for t1/2 of DQ: DQ quantified in whole blood after iv dosing of the O-carbamate (RMB059 or RMB060); for CL of DQ / Vd of DQ: DQ quantified in whole blood after iv dosing of the O-carbamate
Procedure: Healthy C57BL/6 mice each weighing approximately 25 g were maintained at the University of Cape Town animal facility. Mice were housed in 27 × 21 × 28 cm cages (n = 3) under controlled environmental conditions at 22 ± 2°C, humidity of 55 ± 15% and a 12-hour light/dark cycle. Food and water were available ad libitum. Mice were acclimatised to the experimental environment for 4–5 days prior to initiating the experiments. […] The total volume of administration was 80 μL. Blood samples were collected post-dose in lithium heparin microvials via tail bleeding at predetermined intervals at 0.16, 0.5, 1, 3, 5, 8, 10, and 24 h. Samples were gently vortexed and stored at −80°C until analysis. A quantitative LC-MS/MS assay was used to determine whole-blood concentrations of RMB005, −059 and −060. Whole blood samples (20 μL) were treated with 100 μL ice cold acetonitrile containing the compound RMB073 used previously for determination of whole blood concentrations in analysis of TB-active compounds, as internal standard (200 ng/ml) ([Tanner et al., 2019]). The mixture was vortexed vigorously for 1 min, and 5 µL of the supernatant were injected onto the analytical column following centrifugation (5,590 g for 5 min). Gradient elution was carried out using a Gemini NX-C18 analytical column (5 μm, 2.1 mm × 50 mm). The aqueous mobile phase consisted of 5 mm ammonium acetate with 0.1% acetic acid in deionised water, while the organic phase consisted of 0.1% acetic acid in acetonitrile. A Shimadzu HPLC and reverse phase Gemini NX-C18 column coupled to an AB Sciex 3200 Q TRAP MS was operated at unit resolution in the multiple reaction monitoring (MRM) mode. […] The calibration standards ranged from 2 ng/mL to 3,000 ng/mL for RMB005, and 2 ng/mL to 4,000 ng/mL for RMB059, −060 and DQ. Drug concentration versus time plots for each compound were used to determine maximal drug concentration C max, time T max to reach C max, elimination half-life t 1/2 and the area under the concentration-time curve from time zero to infinity, AUC0-inf. From these values the following PK parameters—clearance CL, volume of distribution (Vd) and oral bioavailability (BA) were determined using the non-compartmental analysis Microsoft Excel Add-In PKSolver ([Zhang et al., 2010]).

[2] = In vivo pharmacokinetics, oral administration; set-up: species or system C57BL/6 mice; details: DQ quantified in whole blood after po 20 mg/kg of the O-carbamate, mice; for AUC0-∞ of DQ / Cmax: 20 mg/kg; for Cmax: read-out: Cmax of DQ
Procedure: Healthy C57BL/6 mice each weighing approximately 25 g were maintained at the University of Cape Town animal facility. Mice were housed in 27 × 21 × 28 cm cages (n = 3) under controlled environmental conditions at 22 ± 2°C, humidity of 55 ± 15% and a 12-hour light/dark cycle. Food and water were available ad libitum. Mice were acclimatised to the experimental environment for 4–5 days prior to initiating the experiments. RMB005, −059 and −060 were prepared in an aqueous solution of HPMC containing 0.2% Tween 80. The weighed compound was sonicated and vortexed to obtain a homogenous suspension. Oral dosing of 20 mg/kg was achieved via oral gavage. The total volume per administration was 200 μL. Blood samples were collected post-dose in lithium heparin microvials via tail bleeding at predetermined intervals at 0.5, 1, 3, 5, 8, 10, and 24 h. Samples were gently vortexed and stored at −80°C until analysis. A quantitative LC-MS/MS assay was used to determine whole-blood concentrations of RMB005, −059 and −060. Whole blood samples (20 μL) were treated with 100 μL ice cold acetonitrile containing the compound RMB073 used previously for determination of whole blood concentrations in analysis of TB-active compounds, as internal standard (200 ng/ml) ([Tanner et al., 2019]). The mixture was vortexed vigorously for 1 min, and 5 µL of the supernatant were injected onto the analytical column following centrifugation (5,590 g for 5 min). Gradient elution was carried out using a Gemini NX-C18 analytical column (5 μm, 2.1 mm × 50 mm). The aqueous mobile phase consisted of 5 mm ammonium acetate with 0.1% acetic acid in deionised water, while the organic phase consisted of 0.1% acetic acid in acetonitrile. A Shimadzu HPLC and reverse phase Gemini NX-C18 column coupled to an AB Sciex 3200 Q TRAP MS was operated at unit resolution in the multiple reaction monitoring (MRM) mode. […] The calibration standards ranged from 2 ng/mL to 3,000 ng/mL for RMB005, and 2 ng/mL to 4,000 ng/mL for RMB059, −060 and DQ. Drug concentration versus time plots for each compound were used to determine maximal drug concentration C max, time T max to reach C max, elimination half-life t 1/2 and the area under the concentration-time curve from time zero to infinity, AUC0-inf. From these values the following PK parameters—clearance CL, volume of distribution (Vd) and oral bioavailability (BA) were determined using the non-compartmental analysis Microsoft Excel Add-In PKSolver ([Zhang et al., 2010]).

[3] = tested on: multidrug resistant Pf W2; set-up: method as in Beteck et al., 2018; details: ref Beteck et al., 2018; read-out: Activity against multidrug resistant Pf W2; cited from earlier work
[4] = Passive permeability, parallel artificial membrane permeation assay (PAMPA); type: in vitro ADME; details: donor pH 6.5, acceptor pH 7.4, 4 h, read-out: Permeability (LogPapp) (converted)
Procedure: A parallel artificial membrane permeation assay (PAMPA) was used to assess the passive permeability of compounds with a 96-well MultiScreen filter plate ([…] pore size, Millipore). The filter plate was precoated with 5% hexadecane in hexane. Stock solutions of compounds were diluted to 1 mM in a donor buffer (pH 6.5). Lucifer yellow was added to the apical wells of the precoated MultiScreen plate containing compound donor solution. The donor buffer solutions were spiked with each test compound (1 mM). The acceptor-buffer solution was prepared by adding 10 μL DMSO to 990 μL acceptor buffer (pH 7.4) and 250 μL were added to the basolateral (acceptor) wells. The donor plate was carefully inserted into the acceptor plate and incubated at room temperature for 4 h. After the incubation period, 50 μL of samples from the acceptor plate were transferred to a round bottom 96-well plate, together with 30 μL of donor buffer for matrix matching. Theoretical equilibrium samples for each test compound were prepared by adding 150 μL of donor solutions to 250 μL acceptor solutions and left at room temperature. These theoretical equilibrium samples represent complete transfer of the compound into the donor well. For the theoretical equilibrium samples, 80 μL were added to the analysis plate. Lastly, 160 μL of the internal standard carbamazepine (0.1 μM) was added to all acceptor and equilibrium samples. A portion of the sample containing Lucifer yellow was analyzed on a BioRad iMark^TM Microplate Absorbance Reader (BioRad, Hercules, CA, United States; excitation 490 nm, emission 510–570 nm) to determine that P app was within the acceptable range (<50 nm/s). Samples were analysed using reverse phase Gemini NX-C18 column (5 μM, 2.1 mm × 50 mm) with a Shimadzu HPLC coupled with an AB Sciex 3200 Q TRAP MS). The Papp for each compound was determined using. C=VD × VA/(VD+VA) ×A×t where VA = volume of donor compartment (0.15 cm^3), VD = volume of acceptor compartment (0.25 cm^3), A = accessible filter area (0.24 cm^2) and t = incubation time (14,400 s). […]

[5] = Plasma stability; type: in vitro ADME; details: human plasma
Procedure: Stock solutions of compounds in DMSO were used to spike pooled human plasma. Samples were transferred in duplicate to 6 different wells of a 96-deep well plate. An aliquot of each sample was immediately quenched with ice cold acetonitrile containing the internal standard carbamazepine (0.1 μM), after which the plate was incubated in a water bath (37°C for 1 h). Aliquots of samples were removed at 5, 15, 40, 60, and 180 min and quenched with ice cold acetonitrile. After samples of the final time point were precipitated, the supernatant was transferred to a round bottom 96-well plate for analysis by LC-MS/MS using a reverse phase Gemini NX-C18 column (5 μM, 2.1 mm × 50 mm) with a Shimadzu HPLC coupled with an AB Sciex 3200 Q TRAP MS). The peak area ratios were used to calculate the amount of parent compound remaining and t1/2 in plasma, using the following equations.
% Parent remaining % Parent= Normalised peak area of sample at timepoint/Normalised peak area of sample at t=0 x 100
Predicted t1/2 t1/2= −0.693/λ Where λ is the slope of the Ln % parent remaining vs. time curve.

[6] = tested on: multidrug resistant Pf K1; set-up: method as in Beteck et al., 2018; details: ref Beteck et al., 2018; read-out: IC50 against multidrug resistant Pf K1; cited from earlier work
[7] = tested on: Pf NF54; details: ref Beteck et al., 2018; read-out: IC50 against Pf NF54; cited from earlier work
[8] = Metabolic stability in human liver microsomes; type: in vitro ADME
Procedure: (§1) A 5-point metabolic stability assay in human and mouse liver microsomes were performed in duplicate in 96-well plates. Stock solution of RMB005, −059 and 060 prepared in DMSO were individually incubated at 37°C in mouse and pooled human liver microsomes (0.4 mg/mL). An aliquot was removed at 0 min and quenched with ice cold acetonitrile containing the internal standard carbamazepine (0.1 μM). The cofactor NADPH was added, and the reactions were subsequently stopped at time points 5, 10, 30, and 60 min by removal of an aliquot and quenching with ice cold acetonitrile containing the internal standard. The supernatant of all samples were analysed via LC-MS/MS analysis (reverse phase Gemini NX-C18 column and Shimadzu HPLC and AB Sciex 3200 Q TRAP MS). Calculation of in vitro t1/2, intrinsic clearance rate (CLint) and predicted in vivo clearance (CLH) was carried out using the following equations ([Obach 1999]). CLintClint= 0.693/t1/2(min) ×Volume of incubation (μL)/microsomal protein (μg) Where t1/2 is calculated in minutes.
(§2) Predicted in vivo CLH CLH=Q × fu(plasma)×CLint/fu(mic)/Q+ fu(plasma)× CLint/fu(mic) Where Q is the hepatic blood flow of mouse (90 mL/min/kg) or human (20.7 mL/min/kg). Fu(plasma) is the unbound drug fraction in the plasma and fu(mic) is the unbound fraction in the microsomes.
(§3) The equation below was used in the case of RMB059 and -060, where protein-binding data were not available. CLH=Q × CLint/Q+ CLint

[9] = Metabolic stability in mouse liver microsomes; type: in vitro ADME
Procedure: as §1, §2, §3

[10] = Kinetic solubility in PBS (HPLC-DAD); type: physicochemical; details: phosphate buffer saline (PBS); for solubility kinetic at 2 h: aqueous buffer, kinetic from dmso stock
Procedure: Stock concentrations of test samples (10 mM) were prepared in DMSO and diluted to a final concentration of […] in phosphate buffer saline (PBS) solutions at pH 2, 6.5, and 7.4 in flat-bottomed 96-well plates. A three-point calibration curve of each control and test compound was prepared from stock solutions in DMSO. Plates were agitated on an orbital shaker at room temperature for 2 h at 200 rpm and subsequently analysed using a reverse phase Gemini NX-C18 column (5 μM, 2.1 mm × 50 mm) with an Agilent 1,200 Rapid Resolution HPLC and diode array detection.

[11] = Lipophilicity, 1-octanol/phosphate buffer pH 7.4 (LogD7.4); type: physicochemical
Procedure: Stock solutions ([…]) of compounds were diluted to 100 μM in 96-well deep-well plate containing 1-octanol and phosphate buffer at pH 7.4. The plate was agitated on an orbital shaker at 750 rpm for 2 h. The organic and buffer layers of each well were transferred separately to a new analysis plate. The samples were analysed with the HPLC-diode array detection as described for kinetic solubility. Samples from both layers were analysed to determine LogD7.4 values.

[12] = *protein binding data not included

In the case of `CCCCCCCCCCOc1cc2c(O)c(C(=O)OCC)cnc2cc1OCC` [DQ from RMB059], the “t1/2 of DQ” value [1] is reported as 4.79 ± 1.66 h, the “CL of DQ” value [1] is reported as 19.40 ± 3.14 mL/min/kg and the “Vd of DQ” value [1] is reported as 8.00 ± 2.96 L/kg. For the same molecule, the “Tmax of DQ” value [2] was 1.67 ± 0.67 h, the “AUC0-∞ of DQ” value [2] was 101 ± 44 µmol·min/L and the Cmax [2] was 230 ± 50 nM.

In the case of `CCCCCCCCCCOc1cc2c(O)c(C(=O)OCC)cnc2cc1OCC` [DQ from RMB060], the “t1/2 of DQ” value [1] is reported as 4.66 ± 1.16 h, the “CL of DQ” value [1] is reported as 21.50 ± 3.38 mL/min/kg and the “Vd of DQ” value [1] is reported as 8.88 ± 2.87 L/kg. The “Tmax of DQ” value [2] was 1.67 ± 0.67 h, the “AUC0-∞ of DQ” value [2] was 63 ± 9 µmol·min/L and the Cmax [2] was 110 ± 10 nM.

For `CCCCCCCCCCOc1cc2c(OC(=O)N3CCOCC3)c(C(=O)OCC)cnc2cc1OCC` [RMB059], the IC50 [3] is listed as 5.7 nM, the Papp at 4 h, 1 mM [4] is listed as 1.58 ×10⁻⁶ cm/s and the “Plasma stability (in words)” value [5] is listed as “high degree of lability”. For the same molecule, the half-life ([5]; pooled plasma, 37°C) was 1.1 h, the IC50 [6] was 14.4 nM and the IC50 [7] was 6.8 nM. The “Estimated in vivo CLH HLM” value [8, 12] was 19.7* mL/min/kg, the CLint scaled ([8]; human, pooled liver microsomes, calculated from t1/2 in HLM, read-out: In vitro CLint HLM) was 410 mL/min/kg and the half-life ([8]; pooled liver microsomes, human liver microsomes, NADPH, read-out: Degradation half-life HLM) was 0.177 h. For the same molecule, the “Estimated in vivo CLH MLM” value [9, 12] was 75.2* mL/min/kg, the half-life ([9]; mouse liver microsomes, NADPH, read-out: Degradation half-life MLM) was 0.277 h and the CLint scaled ([9]; mouse, liver microsomes, calculated from t1/2 in MLM, read-out: In vitro CLint MLM) was 457 mL/min/kg. For the same molecule, the solubility kinetic at 2 h ([10]; PBS pH 2, read-out: Kinetic solubility pH 2) was under 5 µM, the solubility kinetic at 2 h ([10]; PBS pH 6.5, read-out: Kinetic solubility pH 6.5) was under 5 µM and the solubility kinetic at 2 h ([10]; PBS pH 7.4, read-out: Kinetic solubility pH 7.4) was under 5 µM. For the same molecule, the solubility at 2 h ([10]; all pH levels tested (pH 2, 6.5, 7.4)) was under 5 µM and the logD at 2 h [11] was 2.9.
